Reference: US20250205234A1, “ANTI-TUBERCULAR COMPOSITIONS” (priority 2022, published 2025)
Converted amounts (≈) assume the structure as drawn. Where two headings read alike, the source gives them in different places.

Tests used:
[1] = system: M. smegmatis F-ATP synthase; assay type: biochemical; details: for Inhibition of ATP synthesis of reconstituted MsF-ATP synthase: compound at its IC50 concentration (BDQ 4 nM; GaMF1.39 90 nM)
[2] = system: P. aeruginosa PAO1 WT; assay: Biofilm assay, P. aeruginosa; assay type: cell-based, Pseudomonas aeruginosa; details: 3 h pre-formed biofilm; 3-9 μM GaMF1.39 or 1-3 μM BDQ; PBS or M9 glucose media
[3] = system: E. coli UTI 189; assay: Biofilm assay, E. coli; assay type: cell-based, Escherichia coli; details: 3 h pre-formed biofilm; 3-9 μM GaMF1.39 or 1-3 μM BDQ; PBS or M9 glucose media
[4] = system: M. bovis BCG; assay: microbe, parasite or virus in culture; assay type: cell-based; details: for MIC: Mycobacterium tuberculosis variant bovis BCG, BCG
[5] = system: M. bovis BCG; assay: microbe, parasite or virus in culture; assay type: cell-based; details: Mycobacterium tuberculosis variant bovis BCG, 120 h, read-out: minimal inhibitory concentration (MIC50)
[6] = system: M. bovis BCG cells; assay: microbe, parasite or virus in culture; assay type: cell-based; details: Mycobacterium tuberculosis variant bovis BCG, read-out: IC50 intracellular ATP inhibition
[7] = system: M. bovis BCG; assay type: cell-based; details: 7 μM, 96 h, methylene blue
[8] = system: transmembrane pH gradient of mycobacterial IMVs; assay: Proton translocation / uncoupling assay in IMVs (ACMA fluorescence quenching); assay type: biochemical, M. smegmatis; details: 2 mM NADH, uncoupler SF6847 as positive control
[9] = target: M. smegmatis 166M c-subunit mutant IMVs (Mycolicibacterium smegmatis, UniProt A0R201+A0R205+A0R206, I70M); assay: biochemical; details: read-out: IC50 ATP synthesis, 166M mutant IMVs
[10] = system: M. bovis BCG; assay type: cell-based
[11] = system: M. smegmatis mc^2 155; assay type: cell-based
[12] = system: zebrafish embryos; assay: Toxicity testing using zebrafish embryos; assay type: in vivo; details: 9 μM, 48 hpf embryos, 5 days
Protocol: Zebrafish care and ethics statement: All Zebrafish experiments were approved by the NTU Institutional Animal Care and Use Committee under reference no #A20038. Experiments were done using wild-type AB zebrafish. The ages of the embryos are shown in hours post fertilization (hpf).
Dechorionated zebrafish wild-type embryos at 48 hpf (n=120) were used. The embryos were immersed respectively in 5 ml of E3 medium containing GaMF1.39 in 6-well plate for 5 days. DMSO was used as vehicle control. The embryos were observed under a microscope. […] The experiment was repeated twice with three replicates each.

[13] = Microsomal stability assay; assay type: in vitro ADME; details: pH 7.4; mouse liver microsomes
Protocol: Microsomal stability assay were outsourced and performed by Bioduro-Sundia Ltd, USA based on the following protocol as done in Obach, R. S., Drug Metab. Dispos., 1999, 27, 1350; McGinnity, D. F. & Riley, R. J., Biochem. Soc. Trans., 2001, 29, 135. Working solutions of each compound are prepared from 10 mM stock solution in DMSO diluted to a final concentration of 100 μM in 0.05 M phosphate buffer (pH 7.4). Aliquots of Liver Microsome working solution are transferred into 1.1 mL tubes using a multichannel pipette. Positive control (5 mixed) and test compound working solutions are transferred into the tubes. The mixtures are vortexed gently and then pre-incubated at 37° C. 5 mM NADPH were aliquoted into the tubes using a multichannel pipette and vortexed gently. At each time point of 0 min, 5 min, 15 min, 30 min and 60 min with NADPH or 0, 30 min and 60 min without NADPH, an aliquot is removed from each tube. […] Each compound is analyzed by reversed phase HPLC using a Kinetex 2.6μ C18 100 Å column (3.0 mm×30 mm, Phenomenex). […] The amount of parent compound is determined on the basis of the peak area ratio (compound area to IS area) for each time point. The estimation of Clint (in μL/min/mg protein) is calculated using the following equation: CLint (μLmin^−1 mg^−1)=ln(2)*1000/t1/2/protein concentration

[14] = system: Mtb; details: Hotra et al. 2020; cited from earlier work
[15] = target: mycobacterial F-ATP synthase (Mycobacterium bovis, UniProt A1KI93+A1KI97); details: read-out: IC50 NADH-driven ATP synthesis of IMVs, IMVs of M. bovis BCG; cited from earlier work
[16] = system: mycobacterial F-ATP synthase; details: IMVs of M. smegmatis, NADH; read-out: IC50 NADH-driven ATP synthesis of IMVs; cited from earlier work
[17] = system: M. tuberculosis H37Rv-infected THP-1 cells; assay: THP-1 macrophage infection model, intracellular efficacy

Chain of mycobacterial F-ATP synthase (Mycobacterium bovis, UniProt A1KI93+A1KI97) (A1KI93 whole entry, looked up): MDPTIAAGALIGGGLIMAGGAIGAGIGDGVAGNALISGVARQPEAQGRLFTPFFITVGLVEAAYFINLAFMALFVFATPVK
Chain of mycobacterial F-ATP synthase (Mycobacterium bovis, UniProt A1KI93+A1KI97) (A1KI97 whole entry, looked up): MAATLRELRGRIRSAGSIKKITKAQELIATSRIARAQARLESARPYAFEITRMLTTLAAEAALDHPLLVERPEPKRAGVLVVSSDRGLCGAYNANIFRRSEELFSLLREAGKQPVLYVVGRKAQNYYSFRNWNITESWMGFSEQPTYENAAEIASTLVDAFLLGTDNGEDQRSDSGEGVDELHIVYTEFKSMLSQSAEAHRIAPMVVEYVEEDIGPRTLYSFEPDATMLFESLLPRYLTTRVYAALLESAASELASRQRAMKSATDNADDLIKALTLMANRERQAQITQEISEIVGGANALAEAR

SMILES: COc1nc2ccc(Br)cc2cc1[C@@H](c1ccccc1)[C@@](O)(CCN(C)C)c1cccc2ccccc12 [BDQ, bedaquiline, reference compound]
- Inhibition of ATP synthesis of reconstituted MsF-ATP synthase [1]: ~51%
- Killing of planktonic or biofilm cells [2]: No significant differences
- Killing of planktonic or biofilm cells [3]: No significant differences

SMILES: CC(C)/N=c1\cc2n(-c3ccc(Cl)cc3)c3ccccc3nc-2cc1Nc1ccc(Cl)cc1 [Clofazamine, clofazimine]
- MIC Drug B alone ([4]; Clofazamine alone): 0.25 µM (≈ 0.118 µg/mL)
- MIC Drug B in combination ([4]; Clofazamine in combination with GaMF1.39): 0.125 µM

SMILES: CCNc1cc(C)nc(Nc2ccc3nc(-c4ccc(Cl)cc4)[nH]c3c2)n1 [GaMF1.39]
- MIC50 [5]: 6.8 µM (≈ 2.58 µg/mL)
- IC50 [6]: 3300 nM
- Oxygen consumption within the respiratory chain [7]: unaffected
- Uncoupled proton pumping (ACMA quenching) [8]: lacked the ability to induce uncoupled proton pumping
- IC50 [9]: 64 nM
- ATP synthesis activity of reconstituted MsF-ATP synthase with compound ([1]; GaMF1.39 at its IC50 concentration, no compound 35.2±2.3): 20.5±2.6 nmol·min^−1 (mg protein)^−1
- Inhibition of ATP synthesis of reconstituted MsF-ATP synthase [1]: 42%
- Killing efficiency against M. bovis BCG ([10]; 8-fold its MIC50, up to 6 days, CFU): more efficient than its parental molecule GaMF1
- Growth of M. bovis BCG cultures in killing kinetics experiment ([10]; GaMF1.39 10×MIC50, with or without Q203 100 nM, t=10 days): inhibited the growth of M. bovis cells even after 10 days
- Killing of M. smegmatis mc^2 155 [11]: killed
- Toxicity in zebrafish embryos (survival) [12]: no signs of toxicity-induced killing
- Killing of planktonic or biofilm cells [2]: no killing of planktonic or biofilm cells
- Killing of planktonic or biofilm cells [3]: no killing of planktonic or biofilm cells
- half-life [13]: 29.6 min
- microsomal CLint [13]: 46.8 µL/min/mg
- MIC Drug A in combination ([4]; GaMF1.39 in combination with Clofazamine): 3 µM
- MIC Drug A in combination ([4]; GaMF1.39 in combination with Q203): 0.23 µM
- MIC ([4]; 144 h, read-out: MIC Drug A alone): 6.8 µM (≈ 2.58 µg/mL)
- MIC50 against Mtb [14]: 3.0 µM (≈ 1.14 µg/mL)
- IC50 [15]: 51.6 ± 1.35 nM
- IC50 [16]: 90 ± 1.1 nM
- Intracellular efficacy, viable bacterial count (CFU/ml) ([17]; 3 and 9 μM, compared with initial inoculum (day 0)): showed a decrease in viable bacterial count
- Alteration of infected macrophages (microscopy) ([17]; THP-1 macrophages treated with GaMF1.39): did not show any visible optical alteration of the membrane, cell form or cell size

SMILES: CCc1nc2ccc(Cl)cn2c1C(=O)NCc1ccc(N2CCC(c3ccc(OC(F)(F)F)cc3)CC2)cc1 [Q203, Telacebec]
- MIC ([4]; read-out: MIC Drug B alone): 0.001 µM (≈ 0.000557 µg/mL)
- MIC Drug B in combination ([4]; Q203 in combination with GaMF1.39): 0.0005 µM
